Data reported in patent US20250034151A1, “WEE1 INHIBITOR, PREPARATION THEREFOR, AND USE THEREOF” (JIANGSU TASLY DIYI PHARMACEUTICAL CO., LTD., priority 2022, published 2025).
pIC50: −log10 of the molar value. Read-outs that look alike come from different tables or passages of the source.

How the values were obtained:
[1] = Liver microsomes in vitro stability (human); format: in vitro ADME; conditions: read-out: T1/2/min (H)
Procedure: (§1) 1. Preparation of Working Solution:
(§2) Microsomes were taken out from the −80° C. refrigerator, rapidly melted in a 37° C. water bath and placed on ice until ready to use. The test article was diluted with DMSO to prepare a 10 mM stock solution, and then diluted with acetonitrile to a 0.5 mM secondary stock solution. […] NADPH was diluted with Buffer C to a working solution of 6 mM for the starter solution. An acetonitrile solution containing an internal standard was prepared as the precipitant, and Verapamil-HCl was chosen as the internal standard at a concentration of 4 ng/ml.
(§3) 2. Experimental Procedure:
(§4) A round-bottom well plate was taken, noted as the reaction plate, and the prepared working solution for each compound was dispensed into the well plate according to the number of replicates and time points (0 h samples were also added to the reaction plate), 30 μL/well; the plate was incubated at 37° C. for 10 min. A separate plate with pointed bottom wells, noted as a precipitation plate, was added with 135 μL precipitant per well; 0 h samples were transferred to the plate after 10 min incubation and 15 μL of starter solution was added; the plate was placed on ice before centrifugation.
(§5) The diluted starter solution was added in sufficient quantity to the dispensing plate to facilitate the multichannel pipette aspiration operation.
(§6) The reaction was carried out on a warm incubation shaker and 15 μL of starter solution/sample is added to the plate using a multichannel pipette. The reaction was mixed with a slight shake to initiate the reaction, which was accurately timed and recorded using a timer. In general, samples with shorter reaction times are initiated late and vice versa early, allowing sufficient time for multiple plate manipulation to terminate the reaction. For example, as for the four experiments of 5, 15, 30, and 60 min, the 60 min experiment was started first, and the 5 min experiment was started later, so as to leave sufficient time for the 5 min group.
(§7) After the reaction time had elapsed, all the solution in the plate was aspirated using the multichannel pipette and added to the precipitation plate to terminate the reaction at that point in time. After all reactions had been terminated, the plates were shaken for ten minutes on a plate shaker at 600 rpm to precipitate the protein. The plate was centrifuged at 4° C. for 15 minutes at maximum rpm. 80 μL of supernatant was taken, 320 μL of pure water was added and mixed for LC-MS analysis.

Wee1 protein = molecular target: T1, Wee1 protein (Homo sapiens, UniProt P30291); experiment: Binding of compound to Wee1 protein and Tracer 178 by TR-FRET (Wee1 kinase inhibitory activity); conditions: 15 nM WEE1, 50 nM Tracer 178, read-out: IC50 (inhibitory activity against Wee1 kinase)
T1 construct: purchased Thermo Fisher PR7373A
T1 sequence (P30291 whole entry): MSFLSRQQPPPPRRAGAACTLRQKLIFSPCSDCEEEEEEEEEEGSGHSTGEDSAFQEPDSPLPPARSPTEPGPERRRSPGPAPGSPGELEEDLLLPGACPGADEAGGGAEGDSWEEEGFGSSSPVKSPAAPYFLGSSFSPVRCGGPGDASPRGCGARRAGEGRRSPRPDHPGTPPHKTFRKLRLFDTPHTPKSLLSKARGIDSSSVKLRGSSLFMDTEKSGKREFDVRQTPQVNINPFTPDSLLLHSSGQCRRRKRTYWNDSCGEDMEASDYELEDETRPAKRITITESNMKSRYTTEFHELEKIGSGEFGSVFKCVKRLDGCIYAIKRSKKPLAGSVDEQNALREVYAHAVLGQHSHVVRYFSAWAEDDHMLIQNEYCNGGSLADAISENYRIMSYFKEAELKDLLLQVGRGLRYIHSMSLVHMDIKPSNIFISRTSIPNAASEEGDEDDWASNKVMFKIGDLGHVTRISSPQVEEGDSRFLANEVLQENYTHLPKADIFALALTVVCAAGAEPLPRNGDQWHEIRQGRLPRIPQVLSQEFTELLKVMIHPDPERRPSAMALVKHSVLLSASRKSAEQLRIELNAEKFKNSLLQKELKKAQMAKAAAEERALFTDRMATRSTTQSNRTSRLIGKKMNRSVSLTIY
Procedure: First, solutions of the compounds in different concentration gradients were prepared. The compounds were dissolved in DMSO and the compounds were diluted 4 folds with a total of 10 dose points and 2 parallel replicates for each concentration.
The IC50 for inhibition of enzyme activity by the compounds was then calculated using GraphPad Prism 6 and fitted with a log (inhibitor) vs. response-Variable slope mode. The fitting equation was: Y=Bottom+(Top−Bottom)/(1+10^((Log IC50−X)*HillSlope)), wherein Y represents the percentage of residual enzyme activity known and X represents the known concentration of compound after the logarithm.

[2] = Liver microsomes in vitro stability (mouse); format: in vitro ADME; conditions: read-out: T1/2/min
Procedure: as §1, §2, §3, §4, §5, §6, §7

H1299 cells = experiment: Anti-proliferative effect on H1299 cells by Cell Titer-Glo; format: cell-based; conditions: 3 days
Procedure: (§8) Test Example 2: Evaluation of Cell Proliferation Inhibitory Activity
1. Evaluation of the Anti-Proliferative Effect of Compounds on H1299 Cells by the Cell Titer-Glo Method
(§9) Compound solutions of different concentration gradients were prepared. […] The cell growth group without compound was used as a positive control (maximum signal control) and the medium was used as a negative control (minimum signal control), while ensuring that the final level of DMSO in each reaction well was 0.2%. After removing the medium from the 384-well plate, 25 ul of the configured compound at different concentrations was transferred into the well plate and the compound and cells were incubated in the cell incubator at 37° C. with 5% CO2 for 3 days.
(§10) The 384-well plates were removed from the cell incubator and allowed to equilibrate for 1h to room temperature. 25 ul of Cell Titer-Glo assay was added to each well, lysed on a shaker for 2 min and then read out (Luminescence) using a BMG PHERAStar after 10 min incubation. Calculate the inhibition rate from the luminescence signal: first calculate the average of the positive control (maximum signal control) and the negative control (minimum signal control).
(§11) was used to calculate the rate of inhibition of the cells by different concentrations of the compounds. The IC50 of the compound on cell activity inhibition was calculated by fitting a log(inhibitor) vs. response-Variable slope model to GraphPad Prism 6. The fitted equation was: Y=Bottom+(Top−Bottom)/(1+10^((Log IC50−X)*HillSlope)), where Y represents the rate of inhibition and X represents the concentration of the known compound after Log.
(§12) The results of the in vitro anti-cell proliferation assays of H1299 and MIA Paca-2 for the example compounds according to the method described above are shown in Table 2, wherein the IC50 of each compound was determined and classified according to the description as follows: […]

MIA PaCa2 cells = experiment: Anti-proliferative effect on MIA PaCa2 cells by Cell Titer-Glo; format: cell-based; conditions: Homo sapiens, MIA PaCa-2, 72 h, 3 days, read-out: MIA PaCa 2 (IC50, inhibition of proliferation in vitro)
Procedure: as §8
2. Evaluation of the Anti-Proliferative Effect of Compounds on MIA PaCa2 Cells by the Cell Titer-Glo Method
as §9
as §10, with “1 h” for “1h”
as §11, with “Y=Bottom+(Top-Bottom)/(1+10^((Log” for “Y=Bottom+(Top−Bottom)/(1+10^((Log”, “wherein” for “where”
as §12

[3] = Membrane permeability study (Caco-2); format: in vitro ADME; conditions: human; for efflux ratio at 90 min, 10 µM: Caco-2, pH 7.4; for Papp A→B at 90 min, 10 µM / Papp B→A at 90 min, 10 µM: pH 7.4, Caco-2, 10 μM; for Papp A→B at 90 min, 10 µM: apical to basolateral; for Papp B→A at 90 min, 10 µM: basolateral to apical
Procedure: Caco-2 cells were purchased from the […] (Rockville, MD). The cell culture medium was modified Eagle's medium (MEM) containing 10% inactivated fetal bovine serum and 1% non-essential amino acids.
The cells were incubated for 21-28 days after inoculation for transport experiments and the apparent permeability (Papp) of Lucifer Yellow was used to characterize and verify the compactness of the cell monolayer. […] A 10 μM working solution of the compound to be tested was added to the apical side and basolateral side of Caco-2 and incubated at 37° C. for 90 min. After the incubation, dilute the samples on the apical side and basolateral side, and the concentrations of compounds on the apical and basolateral sides were detected by LC-MS/MS, and the concentrations of the compounds were quantified by standard curve.

[4] = Plasma protein binding (PPB), equilibrium dialysis; format: in vitro ADME; conditions: mouse plasma, 5 h dialysis
From the text: 1. Experimental Procedure
2. Data Processing and Parameter Calculation

[5] = Pharmacokinetics on single dose in mice (intravenous and oral); format: in vivo, ICR mice; conditions: male, ICR, mouse, plasma, Oral, 10 mg/kg
Procedure: 1. Experimental Aim: The present experiment aimed to obtain the pharmacokinetic profile of the subject compounds in ICR mice (both intravenous and oral) 3.1.2 Test System Species: SPF grade male ICR mice Body weight/weekly age: about 30 g 4. […] 4.2 Subjects Given (Route) Intravenous: 1 mg/kg in a volume of 5 mL/kg Gavage: 10 mg/kg in a volume of 10 mL/kg Ultrasound for 5 min before administration 4.3 Subject Preparation (Concentration) Intravenous: 0.2 mg/mL Gavage: 1 mg/mL Fast overnight before administration and feed four hours after administration. […] The blood samples were stored in a refrigerator at or below −20° C. for LC-MS/MS analysis. […] LC-MS/MS Analytical Detection Used 5. Data Processing The samples were detected for drug concentration at each time point by LC-MS/MS. Pharmacokinetic parameters terminal elimination half-life (t1/2), area under the curve (AUC), apparent volume of distribution (Vd), clearance (CL), mean residence time (MRT), and Cmax were calculated using the non-compartmental model of Phoenix WinNonlin 5.2. Bioavailability (F %) was directly from serum concentration results. Mean±standard deviation (X±SD) was used for blood concentration and pharmacokinetic parameters, etc. Specific testing and analytical methods were specified in the form of protocol revisions.

[6] = Homo sapiens, NCI-H1299, 72 h, read-out: H1299 (IC50, inhibition of proliferation in vitro)

Row | Compound | half-life at 1 µM [1] [min] | pIC50 (Wee1 protein) | half-life at 1 µM [2] [min] | pIC50 (H1299 cells; [6]) | pIC50 (MIA PaCa2 cells) | efflux ratio at 90 min, 10 µM [3] | Papp A→B at 90 min, 10 µM [3] [×10⁻⁶ cm/s] | Papp B→A at 90 min, 10 µM [3] [×10⁻⁶ cm/s] | fraction unbound at 5 h, 1 µM [4] | AUC(0-t) [5] [ng·h/mL] | Cmax [5] [ng/mL] | MRT [5] [min] | half-life [5] [min] | pIC50 (H1299 cells; listed as Compound53, read-out: H1299 (IC50, inhibition of proliferation in vitro))
1 | C=CCn1c(=O)c2cnc(Nc3ccc(OC4CN5CCC4CC5)cc3)nc2n1-c1cccc(C(C)(C)O)n1 (stereo not drawn) [Compound 4] | 22.2 | > 8.30 | 10.1 | 5.70 to 6.00 |  |  |  |  |  |  |  |  |  | 
2 | C=CCn1c(=O)c2cnc(Nc3ccc(N4C[C@@H]5C[C@H]4CN5C)c(C)c3)nc2n1-c1cccc(C(C)(C)O)n1 [Compound 12] |  | 8.00 to 8.30 | 31.5 | 6.00 to 7.00 | 6.00 to 7.00 | 11.8 | 2.84 | 33.5 |  |  |  |  |  | 
3 | C=CCn1c(=O)c2cnc(Nc3ccc(OCC)c(CC4C(=O)C5CCN4CC5)c3)nc2n1-c1cccc(N=S(C)(C)=O)n1 (stereo not drawn) [Compound 9] | 2.82 | > 8.30 | 0.78 | 5.70 to 6.00 |  |  |  |  |  |  |  |  |  | 
4 | C=CCn1c(=O)c2cnc(Nc3ccc(N4CC5CC(CN(CC(F)(F)F)C5)C4)cc3)nc2n1-c1cccc(C(C)(C)O)n1 [Compound 33] |  | 7.00 to 8.00 |  | 5.70 to 6.00 | 5.30 to 5.70 | 0.83 | 9.12 | 7.56 |  |  |  |  |  | 
5 | C=CCn1c(=O)c2cnc(Nc3ccc(N4CCOC5(CCCN(C)C5)C4)cc3)nc2n1-c1cccc(C(C)(C)O)n1 (stereo not drawn) [Compound 46] | 16.8 | 7.00 to 8.00 | 13.6 | 6.00 to 7.00 | 6.00 to 7.00 |  |  |  | 0.179 |  |  |  |  | 
6 | C=CCn1c(=O)c2cnc(Nc3ccc(N4CC5CC(C4)N5C)cc3)nc2n1-c1ccc2cnn(CC)c2n1 [Compound 53] |  | 8.00 to 8.30 |  |  | 5.30 to 5.70 |  |  |  | 0.035 | 1640 | 800 | 115 | 113 | 6.00 to 7.00
7 | C=CCn1c(=O)c2cnc(Nc3ccc(N4CC5CC(C4)N5CCF)cc3)nc2n1-c1cccc(C(C)(C)O)n1 [Compound 48] |  | > 8.30 |  | 6.00 to 7.00 | 6.00 to 7.00 | 2.65 | 13.3 | 35.3 | 0.031 | 482 | 470 | 54 | 38.4 | 
8 | C=CCn1c(=O)c2cnc(Nc3cccc(CC4C(=O)C5CCN4CC5)c3)nc2n1-c1cccc(N=S(C)(C)=O)n1 (stereo not drawn) [Compound 10] | 8.31 | > 8.30 | 1.34 | 6.00 to 7.00 |  |  |  |  |  |  |  |  |  | 
9 | C=CCn1c(=O)c2cnc(Nc3ccc(N4C5CCC4CN(C)C5)cc3)nc2n1-c1cccc(C(C)(C)O)n1 [Compound 25] |  | 8.00 to 8.30 | 14.1 | 5.70 to 6.00 | 5.70 to 6.00 |  |  |  |  |  |  |  |  | 
10 | C=CCn1c(=O)c2cnc(Nc3ccc(N4CC5CC(C4)N5C)cc3)nc2n1-c1ccc2c(c1)C(C)(O)CO2 (stereo not drawn) [Compound 57] |  | 7.00 to 8.00 | 43.9 | < 5.00 | < 5.00 |  |  |  |  |  |  |  |  | 
11 | C=CCn1c(=O)c2cnc(Nc3ccc(N4CCN(C5CN6CCC5CC6)CC4)cc3)nc2n1-c1cccc(N=S(C)(C)=O)n1 (stereo not drawn) [Compound 11] |  | 8.00 to 8.30 | 110 | 6.00 to 7.00 | 6.00 to 7.00 |  |  |  |  |  |  |  |  | 
12 | C=CCn1c(=O)c2cnc(Nc3ccc4c(c3)CN(C3CCN(C)CC3)C4=O)nc2n1-c1cccc(N=S(C)(C)=O)n1 [Compound 15] |  | 8.00 to 8.30 | > 120 | < 5.00 | 5.30 to 5.70 |  |  |  |  |  |  |  |  | 
13 | C=CCn1c(=O)c2cnc(Nc3ccc(N4CC5CC(C4)N5C4CCC4)cc3)nc2n1-c1cccc(C(C)(C)O)n1 [Compound 49] |  | > 8.30 |  | 6.00 to 7.00 | 6.00 to 7.00 |  |  |  | 0.042 | 534 | 388 | 68.4 | 61.8 | 
14 | C=CCn1c(=O)c2cnc(Nc3ccc(CC4C(=O)C5CCN4CC5)cc3)nc2n1-c1cccc(N=S(C)(C)=O)n1 (stereo not drawn) [Compound 6] | 5.16 | > 8.30 | 5.72 | 6.00 to 7.00 |  |  |  |  |  |  |  |  |  | 
15 | C=CCn1c(=O)c2cnc(Nc3ccc(N4CC5CC(C4)N5C(C)C)cc3)nc2n1-c1cccc(C(C)(C)O)n1 [Compound 42] |  | 7.00 to 8.00 |  | 6.00 to 7.00 | 6.00 to 7.00 | 7.99 | 6.22 | 49.7 |  |  |  |  |  | 
